pIC50: −log10 of the molar value. ≈ marks a conversion by molar mass, not a printed value. Where no end group is shown, it is not given here.
Experiments:
SMMC7721 cells [1] = test: MTT cell toxicity assay; assay type: cell-based; conditions: 24 h incubation, mean ± SD (n = 6)
Procedure: (§1) Data are given as the mean ± SD (n = 6).
Cell Toxicity Assay: Cytotoxicity in SMMC7221 cells was quantified using an MTT assay. Cells were incubated in Dulbecco's modified Eagle medium (DMEM) medium containing 10% fetal calf serum at 37 °C in an atmosphere of 5% CO2 in air. For the cytotoxicity assay, SMMC7721 cells were precultured in 96‐well cell culture plates at a density of 1.0 × 10^5 cells per well in 100 µL of medium and grown overnight.

SMMC7721 cells [2] = test: In vitro migration assay (transwell); assay type: cell-based; conditions: SMMC7721 cells treated 24 h with 2.5 µg mL^−1 DOX/well, then 24 h transwell incubation, crystal violet
Procedure: Microscopy images of b) migration and c) invasion and e,f) quantitative analysis of SMMC7721 cells that passed through the membrane. […] Cells without treatments were used as control.
Then, 500 µL of media were added to the lower chamber as a chemoattractant. […] Cells that got through the membrane and were located on the lower surface were fixed using 4% paraformaldehyde, stained with crystal violet, and quantified with a microplate reader (Leica, Germany).

[3] = test system: SMMC7721 pulmonary metastasis; test: SMMC7721 pulmonary metastatic mouse model; assay type: in vivo; conditions: SMMC7721 cells injected through the tail vein into nude mice, day 21, compared with saline/control group, n = 6
Procedure: The antimetastatic effects were evaluated by determining the number of metastatic nodules and the degree of H&E staining in the lung tissues.
as §1
Then, mice were sacrificed and photographed, and the primary tumors and the lungs were striped, and then washed with cold PBS. […] For pulmonary metastatic assays, SMMC7721 cells were trypsinized, suspended in complete medium at a density of 1 × 10^7 cells mL^−1, and then immediately intravenously injected into the nude mice through the tail vein. Images of metastatic nodules on the lungs were obtained with a camera and nodules were counted; histological sections of lungs were stained with H&E for the histopathological examination.

SMMC7721 tumors = test: Inhibition of liver tumor growth in mice bearing SMMC7721 tumors; assay type: in vivo; conditions: intratumor injection, 5 mg kg^−1 DOX, versus saline and KGFRWR groups
Procedure: At the end of the experiment, tumors were photographed and weighed.
The body weight and tumor volume were recorded and calculated three times a week for three weeks. The tumor length (L), which is the longest diameter of the tumor, and width (W), which is the diameter in the direction perpendicular to the length, were measured using Vernier calipers, and the tumor volume (V) was counted using the following formula: V = LW ^2/2. Then, mice were sacrificed and photographed, and the primary tumors and the lungs were striped, and then washed with cold PBS. Primary tumors were weighed and photographed. Histological sections of the primary tumors were used for the following three purposes: first, the sections were stained with H&E to detect tumor apoptosis and necrosis; second, TUNEL staining was used to detect DNA fragmentation in the nucleus of late apoptotic cells in the tissue; and third, sections were incubated with an anticaspase‐3 rabbit antibody (1:200 dilution) followed by a horseradish peroxidase‐labeled antirabbit immunoglobulins (Abcam, UK) for color development and then counterstained with hematoxylin.

[4] = rat, in vivo
Procedure: The dynamic behavior of the nanofiber was monitored at predetermined intervals after injection by liquid chromatography‐tandem mass spectrometry (LC/MS/MS).
The rats were anaesthetized with ether. A heparinized capillary was then inserted into eyeground veins to obtain 0.3 mL of blood in a plastic centrifuge tube. Plasma samples were collected by centrifugation at 12 000 rpm for 5 min and then stored immediately at −20 °C until analysis. Next, 300 µL of acetonitrile containing an internal standard (clarithromycin, 20 ng mL^−1) were added to the 100 µL plasma samples to precipitate protein, the mixture was centrifuged at 13 000 rpm for 5 min, and 50 µL of supernatant were assayed by LC/MS/MS.

MMP-2 = target: T1, MMP-2 (Homo sapiens, UniProt P08253); test: MMP-2 inhibitor screening assay (fluorescent substrate method); assay type: biochemical
T1 sequence (P08253 110-660): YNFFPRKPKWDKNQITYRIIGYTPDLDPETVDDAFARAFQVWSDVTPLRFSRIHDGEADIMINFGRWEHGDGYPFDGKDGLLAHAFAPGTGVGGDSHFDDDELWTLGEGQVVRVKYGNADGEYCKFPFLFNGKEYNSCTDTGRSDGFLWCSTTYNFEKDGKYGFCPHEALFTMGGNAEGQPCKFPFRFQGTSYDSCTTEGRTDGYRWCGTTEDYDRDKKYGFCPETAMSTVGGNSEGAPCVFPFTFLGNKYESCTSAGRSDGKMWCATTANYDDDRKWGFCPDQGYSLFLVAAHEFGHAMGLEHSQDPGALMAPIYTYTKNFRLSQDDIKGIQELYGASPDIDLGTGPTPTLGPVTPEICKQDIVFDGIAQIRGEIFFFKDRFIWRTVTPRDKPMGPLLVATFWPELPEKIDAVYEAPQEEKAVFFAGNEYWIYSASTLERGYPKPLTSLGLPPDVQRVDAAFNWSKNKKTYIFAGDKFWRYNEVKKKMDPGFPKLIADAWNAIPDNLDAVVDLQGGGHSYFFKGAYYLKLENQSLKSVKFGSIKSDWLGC
Procedure: MMP‐2 Inhibitor Screening Assay: The MMP‐2 inhibitory activity of the samples was analyzed using a fluorescent substrate method, as previously described.23 The MMP substrate peptide MOCAC‐Pro‐Leu‐Gly‐Leu‐Dap(Dnp)‐Ala‐Arg‐NH2 was purchased from Sigma. […] The fluorescence intensity was measured at 328 nm for excitation and 393 nm for emission every 15 min for a 2 h period without interrupting the reaction using a fluorescence microplate reader (POLARstar Omega, Germany).

| Compound | IC50 (SMMC7721 cell growth) (SMMC7721 cells [1]) [µg/mL] | migration rate compared with control (SMMC7721 cells [2]) [%] | number of pulmonary metastatic nodules [3] | tumor growth (in words) (SMMC7721 tumors) | T1/2 [4] [h] | T max [4] [h] | pIC50 (MMP-2) |
| --- | --- | --- | --- | --- | --- | --- | --- |
| COc1cccc2c1C(=O)c1c(O)c3c(c(O)c1C2=O)C[C@@](O)(C(=O)CO)C[C@@H]3O[C@H]1C[C@H](N)[C@H](O)[C@H](C)O1 [DOX, doxorubicin] | 1.888 (≈ 3.47 µM) | 39.4 | distinctly decreased | inhibited tumor growth | 6.90 ± 1.20 | 0.43 ± 0.16 | – |
| KGFRWR-NH2 [KGFRWR] | – | – | – | – | – | – | 4.85 |
